Measured values: patent US9593122B2, “Substituted pyrazolylpyrazole derivative and use of same as herbicide” (KYOYU AGRI CO., LTD., priority 2013, dated 2017)

How the values were obtained:
Assay type in all cases: in vivo
[1] = system: Chenopodium album; assay: Weed foliar treatment test; details: foliar spray, 3 weeks
Protocol: (§1) Soil was filled into a 1/6000 are pot followed by seeding with Digitaria ciliaris, Chenopodium album and Amaranthus retroflexus, covering with soil, and cultivating in a glass greenhouse at an average atmospheric temperature of 25° C.
(§2) Wettable powder of Target Compound (I) shown in Table 1 prepared in compliance with the preparation examples were diluted with water to the prescribed amount of chemical and uniformly sprayed onto the weeds using 15 liters of sprayed water per are when Digitaria ciliaris had grown to the 1.0 to 2.0 leaf stage.
(§3) After treating for 3 weeks in a glass greenhouse at an average atmospheric temperature of 25° C., the herbicidal efficacy thereof was investigated.
(§4) Evaluation of herbicidal efficacy was carried out in the same manner as the above-mentioned Test Example 1.

[2] = system: Digitaria ciliaris; assay: Weed foliar treatment test; details: foliar spray at 1.0 to 2.0 leaf stage of Digitaria ciliaris, 3 weeks
Protocol: as §1, §2, §3, §4

[3] = system: Amaranthus retroflexus; assay: Weed foliar treatment test; details: foliar spray, 3 weeks
Protocol: as §1, §2, §3, §4

[4] = system: Chenopodium album; assay: Farming soil treatment test; details: soil surface spray prior to weed growth, 30 days
Protocol: (§5) Field soil was filled into a 1/6000 are pot followed by seeding with Digitaria ciliaris, Chenopodium album and Amaranthus retroflexus and covering with soil.
(§6) Wettable powder of compounds of formula (I) shown in Table 1 prepared in compliance with the preparation examples were diluted with water to the prescribed amount of chemical and uniformly sprayed onto each soil surface layer using 10 liters of sprayed water per are prior to weed growth following seeding.
(§7) After treating for 30 days in a glass greenhouse at an average atmospheric temperature of 30° C., the herbicidal efficacy thereof was investigated.
(§8) Evaluation of herbicidal efficacy is carried out in the same manner as the above-mentioned Test Example 1.

[5] = system: Digitaria ciliaris; assay: Farming soil treatment test; details: soil surface spray prior to weed growth, 30 days
Protocol: as §5, §6, §7, §8

[6] = system: Amaranthus retroflexus; assay: Farming soil treatment test; details: soil surface spray prior to weed growth, 30 days
Protocol: as §5, §6, §7, §8

[7] = system: Scirpus juncoides; assay: Paddy herbicidal activity test; details: irrigated paddy pot, 30 days
Protocol: (§9) Rice paddy soil was filled into a 1/10000 are pot followed by the addition of suitable amounts of water and chemical fertilizer, kneading, seeding with Echinochloa crus-galli, Monochoria vaginalis and Scirpus juncoides and maintaining in an irrigated state at a water depth of 3 cm.
(§10) Wettable powder of Target Compound (I) shown in Table 1 prepared in compliance with the preparation examples were diluted with a suitable amount of water, rice plants in the 2.0 leaf stage were transplanted during 3.5 leaf stage of Echinochloa crus-galli, and treated by dropping in chemical in the prescribed amount per are using a pipette.
as §7
(§11) Evaluation of herbicidal efficacy was carried out by comparing growth inhibition rate (%) with an untreated group, while evaluation of phytotoxicity was carried out by comparing growth inhibition rate (%) with the state of a complete eradication group, and were evaluated at 11 levels indicated below.

[8] = system: Monochoria vaginalis; assay: Paddy herbicidal activity test; details: irrigated paddy pot, 30 days
Protocol: as §9, §10, §7, §11

[9] = system: Echinochloa crus-galli; assay: Paddy herbicidal activity test; details: irrigated paddy pot, treated at 3.5 leaf stage of Echinochloa crus-galli, 30 days
Protocol: as §9, §10, §7, §11

[10] = system: Rice plants; assay: Paddy herbicidal activity test, phytotoxicity to transplanted rice; details: rice transplanted at 2.0 leaf stage, 30 days
Protocol: as §9, §10, §7, §11

CC=CCN(C(=O)C(F)(F)F)c1c(C#N)cnn1-c1nn2c(c1Cl)CCCC2 (mixture of isomers) [Compound 24]
Chenopodium album herbicidal efficacy (growth inhibition level) ([1]; 5g a.i./10a): 10 (10: 100%)
Chenopodium album herbicidal efficacy (growth inhibition level) ([1]; 10g a.i./10a): 10 (10: 100%)
Digitaria ciliaris herbicidal efficacy (growth inhibition level) ([2]; 5g a.i./10a): 10 (10: 100%)
Digitaria ciliaris herbicidal efficacy (growth inhibition level) ([2]; 10g a.i./10a): 10 (10: 100%)
Amaranthus retroflexus herbicidal efficacy (growth inhibition level) ([3]; 5g a.i./10a): 10 (10: 100%)
Amaranthus retroflexus herbicidal efficacy (growth inhibition level) ([3]; 10g a.i./10a): 10 (10: 100%)
Chenopodium album herbicidal efficacy (growth inhibition level) ([4]; 5g a.i./10a): 10 (10: 100%)
Chenopodium album herbicidal efficacy (growth inhibition level) ([4]; 10g a.i./10a): 10 (10: 100%)
Digitaria ciliaris herbicidal efficacy (growth inhibition level) ([5]; 5g a.i./10a): 10 (10: 100%)
Digitaria ciliaris herbicidal efficacy (growth inhibition level) ([5]; 10g a.i./10a): 10 (10: 100%)
Amaranthus retroflexus herbicidal efficacy (growth inhibition level) ([6]; 5g a.i./10a): 10 (10: 100%)
Amaranthus retroflexus herbicidal efficacy (growth inhibition level) ([6]; 10g a.i./10a): 10 (10: 100%)
Scirpus juncoides herbicidal efficacy (growth inhibition level) ([7]; 1g a.i./10a): 8 (8: 80% to less than 90%)
Scirpus juncoides herbicidal efficacy (growth inhibition level) ([7]; 5g a.i./10a): 9 (9: 90% to less than 100%)
Monochoria vaginalis herbicidal efficacy (growth inhibition level) ([8]; 1g a.i./10a): 8 (8: 80% to less than 90%)
Monochoria vaginalis herbicidal efficacy (growth inhibition level) ([8]; 5g a.i./10a): 9 (9: 90% to less than 100%)
Echinochloa crus-galli herbicidal efficacy (growth inhibition level) ([9]; 1g a.i./10a): 9 (9: 90% to less than 100%)
Echinochloa crus-galli herbicidal efficacy (growth inhibition level) ([9]; 5g a.i./10a): 10 (10: 100%)

C=C(Cl)CN(C(=O)C(F)(F)F)c1c(C#N)cnn1-c1nn2c(c1Cl)CCCC2 [Compound 3, (N-1-(3-chloro-4,5,6,7-tetrahydropyrazolo[1,5-a]pyridin-2-yl)-4-cyanopyrazol-5-yl)-N-(2-chloroprop-2-enyl)-2,2,2-trifluoroacetamide]
Rice plants phytotoxicity (growth inhibition level) ([10]; 1g a.i./10a): 0 (0 (exponent): 0% to less than 10% (growth inhibition rate))
Rice plants phytotoxicity (growth inhibition level) ([10]; 5g a.i./10a): 0 (0 (exponent): 0% to less than 10% (growth inhibition rate))
Chenopodium album herbicidal efficacy (growth inhibition level) ([1]; 5g a.i./10a): 10 (10: 100%)
Chenopodium album herbicidal efficacy (growth inhibition level) ([1]; 10g a.i./10a): 10 (10: 100%)
Digitaria ciliaris herbicidal efficacy (growth inhibition level) ([2]; 5g a.i./10a): 10 (10: 100%)
Digitaria ciliaris herbicidal efficacy (growth inhibition level) ([2]; 10g a.i./10a): 10 (10: 100%)
Amaranthus retroflexus herbicidal efficacy (growth inhibition level) ([3]; 5g a.i./10a): 10 (10: 100%)
Amaranthus retroflexus herbicidal efficacy (growth inhibition level) ([3]; 10g a.i./10a): 10 (10: 100%)
Chenopodium album herbicidal efficacy (growth inhibition level) ([4]; 5g a.i./10a): 10 (10: 100%)
Chenopodium album herbicidal efficacy (growth inhibition level) ([4]; 10g a.i./10a): 10 (10: 100%)
Digitaria ciliaris herbicidal efficacy (growth inhibition level) ([5]; 5g a.i./10a): 10 (10: 100%)
Digitaria ciliaris herbicidal efficacy (growth inhibition level) ([5]; 10g a.i./10a): 10 (10: 100%)
Amaranthus retroflexus herbicidal efficacy (growth inhibition level) ([6]; 5g a.i./10a): 10 (10: 100%)
Amaranthus retroflexus herbicidal efficacy (growth inhibition level) ([6]; 10g a.i./10a): 10 (10: 100%)
Scirpus juncoides herbicidal efficacy (growth inhibition level) ([7]; 1g a.i./10a): 7 (7: 70% to less than 80%)
Scirpus juncoides herbicidal efficacy (growth inhibition level) ([7]; 5g a.i./10a): 8 (8: 80% to less than 90%)
Monochoria vaginalis herbicidal efficacy (growth inhibition level) ([8]; 1g a.i./10a): 9 (9: 90% to less than 100%)
Monochoria vaginalis herbicidal efficacy (growth inhibition level) ([8]; 5g a.i./10a): 9 (9: 90% to less than 100%)
Echinochloa crus-galli herbicidal efficacy (growth inhibition level) ([9]; 1g a.i./10a): 9 (9: 90% to less than 100%)
Echinochloa crus-galli herbicidal efficacy (growth inhibition level) ([9]; 5g a.i./10a): 10 (10: 100%)
